Data from patent US11970474B2, “Substituted benzodiazoles and use thereof in therapy” (THOMAS HELLEDAYS STIFTELSE FÖR MEDICINSK FORSKNING, priority 2018, dated 2024).

How the values were obtained:
OGG1 = OGG1 (Homo sapiens (Human), UniProt O15527); test: In vitro OGG1 activity assay; assay type: biochemical; settings: 800 pM OGG1 enzyme, 2 nM human APEX1, 10 nM 8-oxoA:C substrate
Method in brief: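 Fluorescence-release assay on a duplex oligonucleotide carrying an OGG1 substrate base beside a fluorophore, quenched from the complementary strand. Excess APEX1 cleaves the abasic site left by base excision, melting the duplex and unquenching the fluorophore. Compounds in DMSO were dispensed before enzyme and substrate, and fluorescein signal was read.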

MLE12 cells = test: Cell viability assay in MLE12 cells (resazurin); assay type: cell-based, mouse; settings: Mus musculus, MLE12, 24 h, TNF-α 20 ng/ml, resazurin added after 24 hours culture
Procedure: (§1) Stock solutions (10 mM in DMSO) of compounds were dispensed in V-bottom 384-well plates and the following dilutions were prepared: 10 mM and 0.05 mM. The dilutions were transferred to the source plate. Duplicate 6 points dose-response curves of compounds were nano-dispensed in cell plates (CCL2 assay) and in parallel, 11 points DR curves in duplicates were nano-dispensed for the viability assay. The plates were heat sealed and kept at RT until use.
(§2) MLE12 cells in flasks were washed once with PBS, detached with Trypsin/EDTA, resuspended in fresh medium and counted. Cells were diluted to 3×10^5 cells/ml and seeded with Multidrop Combi in cell plates pre-dispensed with compounds, 25 μl/well (7500 cells/well). The plates were placed, one by one, in a CO2-incubator at 37° C. for 1 hour after which 25 μl/well of TNF-α (final concentration 20 ng/ml) were added. The plates were transferred back to the CO2-incubator placed in a plastic box with wet tissue in the bottom, to avoid evaporation, for 30 hours.
After 24 hours culture, resazurin reagent (stock 1 mg/ml in PBS) diluted 1:17 in PBS was added with Multidrop Combi, 10 μl/well, and plates were incubated for 6 hours. Plates were read in Sense plate reader with resorufin protocol (ex544 nm/em595 nm). The results were imported to an excel template where the EC50 values were calculated using XLfit.

CCL2 = test: Mouse CCL2 assay in MLE12 cells; assay type: cell-based; settings: Mus musculus, MLE12, 30 h, MLE12 cells; TNF-α 20 ng/ml; supernatant after 30 hours; HTRF; read-out: CCL2 (EC50)
Excerpt: Cisbio mouse CCL2 assay is intended for the quantitative measurement of CCL2 in supernatant using HTRF® technology. The assay is compatible with mouse samples, and is highly specific for CCL2. CCL2 is detected in a sandwich assay format using 2 different specific antibodies, one labeled with Cryptate (donor) and the second with d2 (acceptor). The detection principle is based on HTRF® technology. When the labelled antibodies bind to the same antigen, the excitation of the donor with a light source (laser or flash lamp) triggers a Fluorescence Resonance Energy Transfer (FRET) towards the acceptor, which in turn fluoresces at a specific wavelength (665 nm). The two antibodies bind to the CCL2 present in the sample, thereby generating FRET. Signal intensity is proportional to the number of antigen-antibody complexes formed and therefore to the CCL2 concentration. • Materials: • Cells: MLE12 (Mouse Lung Epithelial cells, SV40 transformed) • Medium: DMEM/F12 (Gibco #11330057), FBS 5% (Gibco #10500064), Pen/Strep 50 U/50 μg/ml (Gibco #15070063) • Cell plates: 384-well, black/clear, TC-treated (Corning #3764) • Source plate: Labcyte LDV 384 (Labcyte #LP-0200) • Compound dilution plate: V-bottom 384-well PP plate (Greiner #781280) • Compounds: 10 mM stocks in DMSO • HTRF plates: 384-well, white, half area, non-binding (Costar #3824) • Mouse CCL2 kit: Cisbio 62MCCL2PEH • Other reagents: Trypsin/EDTA 10× (Gibco #15400054), PBS (Gibco #14190169), Resazurin (Sigma-Aldrich #199303), 1 mg/ml in PBS, TNF-α 200 μg/ml in PBS (Peprotech #300-01A) • Instruments: • Echo liquid handler (Labcyte) • Multidrop Combi (Thermo Scientific) • Sense plate reader (Hidex) Compound Handling:
as §1, §2
After 30 hours incubation, the plates were spun down 5 minutes at 400 g, and 16 μl/well of the supernatants were transferred to the assay plate. A mCCL2 standard curve was prepared according to the kit protocol and 16 μl/well of the standards were also added to the assay plate.
The anti-CCL2 antibody mix was prepared according to the kit protocol, and 4 μl/well were added to the assay plate. The plate was sealed and incubated over night at RT. After incubation the plate was read in Sense plate reader with Time-resolved FRET protocol (Ex330 nm/Em 620 and 665 nm). After data reduction, the delta ratios were imported to an excel template where the IC50 values were calculated.

Chain of OGG1 (O15527 whole entry): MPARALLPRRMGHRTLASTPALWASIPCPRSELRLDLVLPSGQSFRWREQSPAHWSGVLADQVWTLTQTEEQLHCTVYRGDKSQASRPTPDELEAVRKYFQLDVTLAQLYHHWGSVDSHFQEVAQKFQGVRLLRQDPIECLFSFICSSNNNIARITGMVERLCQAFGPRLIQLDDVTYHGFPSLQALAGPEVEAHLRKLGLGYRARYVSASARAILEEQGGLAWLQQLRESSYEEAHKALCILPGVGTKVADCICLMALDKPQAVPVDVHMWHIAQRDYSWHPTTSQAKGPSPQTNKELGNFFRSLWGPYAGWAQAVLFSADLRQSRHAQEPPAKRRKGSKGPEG

IC50 (OGG1) [µM]	EC50 (CCL2) [µM]	SMILES	IC50 (MLE12 cells) [µM]
0.116	21.6	COc1ccc(NC(=O)[C@H]2CC[C@@H](n3c(=O)[nH]c4c(Br)cccc43)CC2)cc1C(F)(F)F [Example 129, (Cis)-4-(4-bromo-2-oxo-2,3-dihydro-1H-1,3-benzodiazol-1-yl)-N-[4-methoxy-3-(trifluoromethyl)phenyl]cyclohexane-1-carboxamide]	9.48
0.676	39.2	O=c1[nH]c2c(Br)cccc2n1[C@H]1CC[C@@H](C(=O)Nc2ccc(Cl)cc2Cl)CC1 [Example 131, (Cis)-4-(4-bromo-2-oxo-2,3-dihydro-1H-1,3-benzodiazol-1-yl)-N-(2,4-dichlorophenyl)cyclohexane-1-carboxamide]	17.4
0.094	23.3	O=c1[nH]c2c(Br)cccc2n1[C@H]1CC[C@@H](C(=O)Nc2ccc3cc[nH]c3c2)CC1 [Example 135, (Cis)-4-(4-bromo-2-oxo-2,3-dihydro-1H-1,3-benzodiazol-1-yl)-N-(1H-indol-6-yl)cyclohexane-1-carboxamide]	9
0.501	23.8	O=c1[nH]c2c(Br)cccc2n1[C@H]1CC[C@@H](C(=O)Nc2ccc(F)cc2)CC1 [Example 136, (Cis)-4-(4-bromo-2-oxo-2,3-dihydro-1H-1,3-benzodiazol-1-yl)-N-(4-fluorophenyl)cyclohexane-1-carboxamide]	8.86
0.058	31.8	Cc1ccc(NC(=O)[C@H]2CC[C@@H](n3c(=O)[nH]c4c(Br)cccc43)CC2)cc1 [Example 139, (Cis)-4-(4-bromo-2-oxo-2,3-dihydro-1H-1,3-benzodiazol-1-yl)-N-(4-methylphenyl)cyclohexane-1-carboxamide]	10.1
0.025	34.6	COc1ccc(NC(=O)[C@H]2CC[C@@H](n3c(=O)[nH]c4c(Br)cccc43)CC2)cc1 [Example 140, (Cis)-4-(4-bromo-2-oxo-2,3-dihydro-1H-1,3-benzodiazol-1-yl)-N-(4-methoxyphenyl)cyclohexane-1-carboxamide]	17.7
0.497	15.8	Cc1cc(NC(=O)[C@H]2CC[C@@H](n3c(=O)[nH]c4c(Br)cccc43)CC2)ccc1F [Example 142, (Cis)-4-(4-bromo-2-oxo-2,3-dihydro-1H-1,3-benzodiazol-1-yl)-N-(4-fluoro-3-methylphenyl)cyclohexane-1-carboxamide]	7.96
0.027	29.6	COc1cc(NC(=O)[C@H]2CC[C@@H](n3c(=O)[nH]c4c(Cl)cccc43)CC2)ccc1C [Example 146, (Cis)-4-(4-chloro-2-oxo-2,3-dihydro-1H-1,3-benzodiazol-1-yl)-N-(3-methoxy-4-methylphenyl)cyclohexane-1-carboxamide]	9.72
0.036	32.1	COc1ccc(NC(=O)[C@H]2CC[C@@H](n3c(=O)[nH]c4c(Cl)cccc43)CC2)cc1 [Example 147, (Cis)-4-(4-chloro-2-oxo-2,3-dihydro-1H-1,3-benzodiazol-1-yl)-N-(4-methoxyphenyl)cyclohexane-1-carboxamide]	17.9
0.098	31.7	O=c1[nH]c2c(Cl)cccc2n1[C@H]1CC[C@@H](C(=O)Nc2ccc3cc[nH]c3c2)CC1 [Example 148, (Cis)-4-(4-chloro-2-oxo-2,3-dihydro-1H-1,3-benzodiazol-1-yl)-N-(1H-indol-6-yl)cyclohexane-1-carboxamide]	15.7
0.086	33.7	Cc1ccc(NC(=O)[C@H]2CC[C@@H](n3c(=O)[nH]c4c(Cl)cccc43)CC2)cc1 [Example 149, (Cis)-4-(4-chloro-2-oxo-2,3-dihydro-1H-1,3-benzodiazol-1-yl)-N-(4-methylphenyl)cyclohexane-1-carboxamide]	16.7
